Results on 16 compounds are retold here after US8163793B2, “Proline derivatives” (Hoffman-La Roche Inc., priority 2009, dated 2012).

In experiment [1] the target is Cathepsin S (UniProt P25774). The experiment can be described thus: Cathepsin enzyme inhibition assay (fluorogenic peptide substrate Z-Val-Val-Arg-AMC), Cathepsin S. Format: biochemical, human and mouse. To be noted: enzyme 1 nM, substrate 20 μM, pH 6.5; read-out: CatS IC50. The gist of the method: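 Compounds were combined with 1 nM human or mouse enzyme, and substrate then started the reaction. The buffer was potassium phosphate (100 mM, pH 6.5) containing EDTA-Na 5 mM, Triton X-100 0.001% and […] 5 mM.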

The target of experiment [2] is Cat L (UniProt P07711). The experiment can be described thus: Cathepsin enzyme inhibition assay (fluorogenic peptide substrate Z-Val-Val-Arg-AMC), Cathepsin L. The note with it: enzyme 1 nM, substrate 20 μM, pH 6.5; read-out: CatL IC50. Format: biochemical, human and mouse. The gist of the method:
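Fluorogenic cleavage of Z-Val-Val-Arg-AMC (20 μM) by 1 nM Cat L was monitored at ex 360/em 465 nm for 20 min, the linear phase. The buffer was 100 mM potassium phosphate pH 6.5 with 5 mM EDTA and DTT. IC50 values were derived by standard methods, in μM.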

The structures appear in SMILES notation.

A word on the IC50: it is the concentration at which inhibition is half-maximal. `CC1(C(=O)N2C[C@H](S(=O)(=O)c3ccc(C4CC4)cc3C(F)(F)F)C[C@H]2C(=O)NC2(C#N)CC2)CC1` [Example 271, (2S,4R)-4-(4-Cyclopropyl-2-trifluoromethyl-benzenesulfonyl)-1-(1-methyl-cyclopropanecarbonyl)-pyrrolidine-2-carboxylic acid (1-cyano-cyclopropyl)-amide]: the IC50 in experiment [1] amounted to 1.75 nM; in experiment [2], 85600 nM.

On to `CN1CCN(c2ccc(S(=O)(=O)[C@@H]3C[C@@H](C(=O)NC4(C#N)CC4)N(C(=O)C4(C)CC4)C3)c(C(F)(F)F)c2)CC1` [Example 272, (2S,4R)-1-(1-Methyl-cyclopropanecarbonyl)-4-[4-(4-methyl-piperazin-1-yl)-2-trifluoromethyl-benzenesulfonyl]-pyrrolidine-2-carboxylic acid (1-cyano-cyclopropyl)-amide], for which the IC50 was 0.6 nM in experiment [1] and 17100 nM in experiment [2].

Turning to `N#CC1(NC(=O)[C@@H]2C[C@@H](S(=O)(=O)c3ccc(OCC(F)(F)F)cc3Cl)CN2C(=O)C2(c3ccc(Br)cc3)CC2)CC1` [Example 273, (2S,4R)-1-[1-(4-Bromo-phenyl)-cyclopropanecarbonyl]-4-[2-chloro-4-(2,2,2-trifluoro-ethoxy)-benzenesulfonyl]-pyrrolidine-2-carboxylic acid (1-cyano-cyclopropyl)-amide], the IC50 worked out at 0.29 nM in experiment [1] and 8.06 nM in experiment [2].

In the case of `CC(=O)N[C@H]1CC[C@H](CC(=O)N2C[C@H](S(=O)(=O)c3ccc(OCC(F)(F)F)cc3Cl)C[C@H]2C(=O)NC2(C#N)CC2)CC1` [Example 274, (2S,4R)-1-[2-(4-Acetylamino-cyclohexyl)-acetyl]-4-[2-chloro-4-(2,2,2-trifluoro-ethoxy)-benzenesulfonyl]-pyrrolidine-2-carboxylic acid (1-cyano-cyclopropyl)-amide], the IC50 came out at 0.935 nM in experiment [1] and 9130 nM in experiment [2].

For `N#CC1(NC(=O)[C@@H]2C[C@@H](S(=O)(=O)c3ccc(OCC(F)(F)F)cc3Cl)CN2C(=O)C(c2ccc(Cl)cc2)c2ccc(Cl)cc2)CC1` [Example 275, (2S,4R)-1-[2,2-Bis-(4-chloro-phenyl)-acetyl]-4-[2-chloro-4-(2,2,2-trifluoro-ethoxy)-benzenesulfonyl]-pyrrolidine-2-carboxylic acid (1-cyano-cyclopropyl)-amide], the IC50 amounted to 0.38 nM in experiment [1] and 2680 nM in experiment [2].

For `Cc1cccc(-n2nc(C)cc2N2C[C@H](S(=O)(=O)c3ccccc3C(F)(F)F)C[C@H]2C(=O)NC2(C#N)CC2)c1` [Example 276, (2S,4R)-1-(5-Methyl-2-m-tolyl-2H-pyrazol-3-yl)-4-(2-trifluoromethyl-benzenesulfonyl)-pyrrolidine-2-carboxylic acid (1-cyano-cyclopropyl)-amide], the IC50 was 0.392 nM in experiment [1] and 9430 nM in experiment [2].

In the case of `N#CC1(NC(=O)[C@@H]2C[C@@H](S(=O)(=O)c3ccc(OCC(F)(F)F)cc3Cl)CN2C(=O)C2(c3ccc(C(N)=O)cc3)CC2)CC1` [Example 277, (2S,4R)-1-[1-(4-Carbamoyl-phenyl)-cyclopropanecarbonyl]-4-[2-chloro-4-(2,2,2-trifluoro-ethoxy)-benzenesulfonyl]-pyrrolidine-2-carboxylic acid (1-cyano-cyclopropyl)-amide], the IC50 in experiment [1] amounted to 0.14 nM; in experiment [2], 445 nM.

Consider `N#CC1(NC(=O)[C@@H]2C[C@@H](S(=O)(=O)c3ccc(OCC(F)(F)F)cc3Cl)CN2C(=O)C2(c3ccc(Cl)cc3)CCC2)CC1` [Example 278, (2S,4R)-1-[1-(4-Chloro-phenyl)-cyclobutanecarbonyl]-4-[2-chloro-4-(2,2,2-trifluoro-ethoxy)-benzenesulfonyl]-pyrrolidine-2-carboxylic acid (1-cyano-cyclopropyl)-amide], for which the values for the IC50 in experiment [1] and in experiment [2] were 0.003 nM and 2750 nM, respectively.

As for `CC(C)(C(=O)N1C[C@H](S(=O)(=O)c2ccc(OCC(F)(F)F)cc2Cl)C[C@H]1C(=O)NC1(C#N)CC1)c1ccc(Cl)cc1` [Example 279, (2S,4R)-1-[2-(4-Chloro-phenyl)-2-methyl-propionyl]-4-[2-chloro-4-(2,2,2-trifluoro-ethoxy)-benzenesulfonyl]-pyrrolidine-2-carboxylic acid (1-cyano-cyclopropyl)-amide], the values for the IC50 in experiment [1] and in experiment [2] were 0.02 nM and 1310 nM, respectively.

Regarding `N#CC1(NC(=O)[C@H]2C[C@H](S(=O)(=O)c3ccc(OCC(F)(F)F)cc3Cl)CN2C(=O)C2(C(F)(F)F)CC2)CC1` [Example 280, (2R,4S)-4-[2-Chloro-4-(2,2,2-trifluoro-ethoxy)-benzenesulfonyl]-1-(1-trifluoromethyl-cyclopropanecarbonyl)-pyrrolidine-2-carboxylic acid (1-cyano-cyclopropyl)-amide], the half-maximal inhibitory concentration (IC50) in experiment [1] was found to be 24.5 nM; in experiment [2], 46500 nM.

`N#CC1(NC(=O)[C@@H]2C[C@@H](S(=O)(=O)c3ccccc3Cl)CN2C(=O)C2(c3ccc(OC(F)(F)F)cc3)CC2)CC1` [Example 281, (2S,4R)-4-(2-Chloro-benzenesulfonyl)-1-[1-(4-trifluoromethoxy-phenyl)-cyclopropanecarbonyl]-pyrrolidine-2-carboxylic acid (1-cyano-cyclopropyl)-amide]: the IC50 is 0.28 nM in experiment [1] and 145 nM in experiment [2].

For the compound `CC(C)(C(=O)N1C[C@H](S(=O)(=O)c2ccccc2Cl)C[C@H]1C(=O)NC1(C#N)CC1)c1ccc(Cl)cc1` [Example 282, (2S,4R)-4-(2-Chloro-benzenesulfonyl)-1-[2-(4-chloro-phenyl)-2-methyl-propionyl]pyrrolidine-2-carboxylic acid (1-cyano-cyclopropyl)-amide], the results for the IC50 in experiment [1] and in experiment [2] were 0.24 nM and 270 nM, respectively.

Consider `N#CC1(NC(=O)[C@@H]2C[C@@H](S(=O)(=O)c3ccccc3Cl)CN2C(=O)C2(c3ccc(Cl)cc3)CCC2)CC1` [Example 283, (2S,4R)-4-(2-Chloro-benzenesulfonyl)-1-[1-(4-chloro-phenyl)-cyclobutanecarbonyl]-pyrrolidine-2-carboxylic acid (1-cyano-cyclopropyl)-amide], for which the IC50 in experiment [1] was determined as 0.12 nM; in experiment [2] it was 24 nM.

For `N#CC1(NC(=O)[C@@H]2C[C@@H](S(=O)(=O)c3ccccc3Cl)CN2C(=O)C2(c3ccc(Cl)c(Cl)c3)CC2)CC1` [Example 284, (2S,4R)-4-(2-Chloro-benzenesulfonyl)-1-[1-(3,4-dichloro-phenyl)-cyclopropanecarbonyl]-pyrrolidine-2-carboxylic acid (1-cyano-cyclopropyl)-amide], the IC50 in experiment [1] came out at 0.07 nM; in experiment [2], 463 nM.

For `N#CC1(NC(=O)[C@@H]2C[C@@H](S(=O)(=O)c3ccccc3Cl)CN2C(=O)C2(c3ccncc3)CC2)CC1` [Example 285, (2S,4R)-4-(2-Chloro-benzenesulfonyl)-1-(1-pyridin-4-yl-cyclopropanecarbonyl)-pyrrolidine-2-carboxylic acid (1-cyano-cyclopropyl)-amide], the figures for the IC50 in experiment [1] and in experiment [2] were 0.227 nM and 2600 nM, respectively.

With `N#CC1(NC(=O)[C@@H]2C[C@@H](S(=O)(=O)c3ccc(OCC(F)(F)F)cc3Cl)CN2C(=O)C2(c3ccccc3)CCOCC2)CC1` [Example 287, (2S,4R)-4-[2-Chloro-4-(2,2,2-trifluoro-ethoxy)-benzenesulfonyl]-1-(4-phenyl-tetrahydro-pyran-4-carbonyl)-pyrrolidine-2-carboxylic acid (1-cyano-cyclopropyl)-amide], the IC50 came out at 0.175 nM in experiment [1] and 3170 nM in experiment [2].
